Results from US20080260661A1, “Aminobutadiene-Based Uv Screens” (Fuji Photo Film B.V., priority 2004, published 2008).

Experiment: Absorption maximum of the structures
Format: physicochemical
Conditions: Table 1; measured in methanol, or if not soluble in methanol, in ethanol
Method: Absorption maxima of the structures in Tables 1 to 3 are measured in methanol, or if not soluble in methanol, in ethanol.

Question: With `CCCCCCN(/C=C/C=C1C(=O)N(C)C(=O)N(C)C1=O)CCCCCC` [Structure 1.10r] as the compound, how does the Absorption maximum read?
Answer: 388 nm

Question: For `CCCCC(CC)COC(=O)C(=C/C=C/N(C)C)C(=O)OCC(CC)CCCC` (stereo not drawn) [Structure 1.3i], which Absorption maximum is on record?
Answer: 374 nm

Question: With `CCCCN(/C=C/C=C(\C(C)=O)S(=O)(=O)c1ccc(C)cc1)CCCC` [Structure 1.7r] as the compound, how does the Absorption maximum read?
Answer: 385 nm

Question: For `CCCCCCN(/C=C/C=C(\C(=O)OCCOc1ccc(C(C)(C)CC)cc1C(C)(C)CC)S(=O)(=O)c1ccc(C)cc1)CCCCCC` [Structure 1.4i], which Absorption maximum is on record?
Answer: 374 nm

Question: For `CCCCN(/C=C/C=C(\C(=O)OC)S(=O)(=O)c1ccc(C(C)(C)C)cc1)CCCC` [Structure 1.2i], which Absorption maximum is on record?
Answer: 373 nm

Question: Which Absorption maximum does the source give for `CCCCCCN(/C=C/C=C(/C(=O)OCC)S(=O)(=O)c1ccccc1)CCCCCC` [Structure 1.1i] here?
Answer: 373 nm

Question: Which Absorption maximum does the source give for `CCCCN(/C=C/C=C1C(=O)CC(C)(C)CC1=O)CCCC` [Structure 1.6r] here?
Answer: 389 nm

Question: Which Absorption maximum does the source give for `CCCCCCN(/C=C/C=C1C(=O)N(C)N(C)C1=O)CCCCCC` [Structure 1.9r] here?
Answer: 387 nm

Question: For `CCCCCCN(/C=C/C=C(C#N)C#N)CCCCCC` [Structure 1.5i], which Absorption maximum is on record?
Answer: 378 nm

Question: Which Absorption maximum does the source give for `CCCCCCN(/C=C/C=C(\C(C)=O)S(=O)(=O)c1ccccc1)CCCCCC` [Structure 1.8r] here?
Answer: 385 nm

Question: For `CCCCCCN(/C=C/C=C(C(C)=O)C(C)=O)CCCCCC` [Structure 1.13r], which Absorption maximum is on record?
Answer: 395 nm

Question: Which Absorption maximum does the source give for `CCCCCCCCCCOC(=O)/C(=C/C=C/N(C)C)C(C)=O` [Structure 1.12r] here?
Answer: 394 nm

Same assay, conditions: Table 2; measured in methanol, or if not soluble in methanol, in ethanol

Question: Which Absorption maximum does the source give for `CC(=O)/C(=C\C=C\N1CCOCC1)S(=O)(=O)c1ccccc1` [Structure 2.2r] here?
Answer: 383 nm

Question: Which Absorption maximum does the source give for `CCCCCCCCCCOC(=O)/C(=C\C=C\N1CCCCC1)S(=O)(=O)c1ccccc1` [Structure 2.1i] here?
Answer: 375 nm

Question: For `CCCCC(CC)COC(=O)C(=CC=CN1CCCCC1)C(C)=O` (stereo not drawn) [Structure 2.3r], which Absorption maximum is on record?
Answer: 395 nm

Same assay, conditions: Table 3; measured in methanol, or if not soluble in methanol, in ethanol

Question: With `CCCCCCCCCCN1/C(=C\C=C(\C(=O)OCCCCCC)S(=O)(=O)c2ccc(C)cc2)SCC1C` (stereo not drawn) [Structure 3.8r] as the compound, how does the Absorption maximum read?
Answer: 392 nm

Question: For `Cc1ccc(S(=O)(=O)/C(C#N)=C\C=C2\OCC(C)(C)N2C)cc1` [Structure 3.1i], which Absorption maximum is on record?
Answer: 361 nm

Question: With `CCCCCCCCCCN1CCC/C1=C/C=C(/C(C)=O)S(=O)(=O)c1ccccc1` [Structure 3.7r] as the compound, how does the Absorption maximum read?
Answer: 392 nm

Question: For `CCCCCCCCCCCCN1/C(=C\C=C(C#N)C#N)OCC1(C)C` [Structure 3.3i], which Absorption maximum is on record?
Answer: 372 nm

Question: Which Absorption maximum does the source give for `CCCCCCCCCCN1CCC/C1=C/C=C(/C(=O)OCC)S(=O)(=O)c1ccc(OC)cc1` [Structure 3.6i] here?
Answer: 375 nm

Question: For `CCCCCCCCCCN1/C(=C\C=C(\C(C)=O)S(=O)(=O)c2ccccc2)OCC1(C)C` [Structure 3.4i], which Absorption maximum is on record?
Answer: 373 nm

Question: Which Absorption maximum does the source give for `CCCCCCOC(=O)/C(=C/C=C1/OCC(C)(C)N1C)S(=O)(=O)c1ccccc1` [Structure 3.2i] here?
Answer: 362 nm

Question: Which Absorption maximum does the source give for `CCCCCCCCCCCCOC(=O)/C(C#N)=C/C=C1/OCC(C)(C)N1C` [Structure 3.5i] here?
Answer: 374 nm

Experiment: Appearance of formulation after application to the transparent substrate
Format: physicochemical
Conditions: not given

Question: For `CCCCCCCCCCOC(=O)/C(=C/C=C/N(C)C)C(C)=O` [Structure 1.12r], which “Appearance (colour) of formulation” value is on record?
Answer: had a colourless appearance after application to the transparent substrate, except for structure 1.12r
